Laboratory results reported in US4336375A, “Cephalosporanic acid derivatives” (American Cyanamid Company, priority 1980, dated 1982).
≈ marks a conversion by molar mass, not a printed value. Where two headings read alike, the source gives them in different places.

Experiments:
[1] = test system: Pseudomonas aeruginosa G236; assay: In vitro MIC, agar dilution, Pseudomonas aeruginosa G236; format: cell-based; details: read-out: Minimal Inhibitory Concentration
Description: (§1) The in vitro activity of representative compounds of the present invention are given in the following Table I in terms of minimal inhibitory concentration. The test used was the standard agar dilution test using a Steers multiple inocula replicator and incubating at 35° C. for 18 hours in conventional nutrient agar.

[2] = test system: Pseudomonas aeruginosa PD05141; assay: In vitro MIC, agar dilution, Pseudomonas aeruginosa PD05141; format: cell-based; details: Pseudomonas aeruginosa PD05141; agar dilution, 35° C., 18 hours, nutrient agar; read-out: Minimal Inhibitory Concentration
Description: as §1

[3] = test system: Pseudomonas aeruginosa 12-4-4; assay: In vitro MIC, agar dilution, Pseudomonas aeruginosa 12-4-4; format: cell-based; details: read-out: Minimal Inhibitory Concentration
Description: as §1

[4] = test system: Pseudomonas aeruginosa UCS 76-13; assay: In vitro MIC, agar dilution, Pseudomonas aeruginosa UCS 76-13; format: cell-based; details: UCS7613; Pseudomonas aeruginosa UCS 76-13; agar dilution, 35° C., 18 hours, nutrient agar; read-out: Minimal Inhibitory Concentration
Description: as §1

[5] = test system: Klebsiella pneumoniae MA75-1; assay: In vitro MIC, agar dilution, Klebsiella pneumoniae MA75-1; format: cell-based; details: MA751; Klebsiella pneumoniae MA75-1; agar dilution, 35° C., 18 hours, nutrient agar; read-out: Minimal Inhibitory Concentration
Description: as §1

[6] = test system: Klebsiella pneumoniae W75-2; assay: In vitro MIC, agar dilution, Klebsiella pneumoniae W75-2; format: cell-based; details: W752; Klebsiella pneumoniae W75-2; agar dilution, 35° C., 18 hours, nutrient agar; read-out: Minimal Inhibitory Concentration
Description: as §1

[7] = test system: Klebsiella pneumoniae W75-4; assay: In vitro MIC, agar dilution, Klebsiella pneumoniae W75-4; format: cell-based; details: W754; Klebsiella pneumoniae W75-4; agar dilution, 35° C., 18 hours, nutrient agar; read-out: Minimal Inhibitory Concentration
Description: as §1

[8] = test system: Klebsiella pneumoniae UR76-1; assay: In vitro MIC, agar dilution, Klebsiella pneumoniae UR76-1; format: cell-based; details: UR761; Klebsiella pneumoniae UR76-1; agar dilution, 35° C., 18 hours, nutrient agar; read-out: Minimal Inhibitory Concentration
Description: as §1

[9] = test system: Klebsiella pneumoniae AD; assay: In vitro MIC, agar dilution, Klebsiella pneumoniae AD; format: cell-based; details: Klebsiella pneumoniae AD; agar dilution, 35° C., 18 hours, nutrient agar; read-out: Minimal Inhibitory Concentration
Description: as §1

[10] = test system: Enterobacter aerogenes UR76-3; assay: In vitro MIC, agar dilution, Enterobacter aerogenes UR76-3; format: cell-based; details: Klebsiella aerogenes, UR763; Enterobacter aerogenes UR76-3; agar dilution, 35° C., 18 hours, nutrient agar; read-out: Minimal Inhibitory Concentration
Description: as §1

[11] = test system: Enterobacter cloacae MA75-1; assay: In vitro MIC, agar dilution, Enterobacter cloacae MA75-1; format: cell-based; details: MA751; Enterobacter cloacae MA75-1; agar dilution, 35° C., 18 hours, nutrient agar; read-out: Minimal Inhibitory Concentration
Description: as §1

[12] = test system: Enterobacter cloacae OSU75-2; assay: In vitro MIC, agar dilution, Enterobacter cloacae OSU75-2; format: cell-based; details: OSU752; Enterobacter cloacae OSU75-2; agar dilution, 35° C., 18 hours, nutrient agar; read-out: Minimal Inhibitory Concentration
Description: as §1

[13] = test system: Serratia K101; assay: In vitro MIC, agar dilution, Serratia K101; format: cell-based; details: Serratia K101; agar dilution, 35° C., 18 hours, nutrient agar; read-out: Minimal Inhibitory Concentration
Description: as §1

[14] = test system: Serratia marcens K77-1; assay: In vitro MIC, agar dilution, Serratia marcens K77-1; format: cell-based; details: K771; Serratia marcens K77-1; agar dilution, 35° C., 18 hours, nutrient agar; read-out: Minimal Inhibitory Concentration
Description: as §1

[15] = test system: Serratia marcens QHC77-2; assay: In vitro MIC, agar dilution, Serratia marcens QHC77-2; format: cell-based; details: QHC772; Serratia marcens QHC77-2; agar dilution, 35° C., 18 hours, nutrient agar; read-out: Minimal Inhibitory Concentration
Description: as §1

[16] = test system: Proteus vulgaris N74-1; assay: In vitro MIC, agar dilution, Proteus vulgaris N74-1; format: cell-based; details: N741, 35° C., 18 hours, nutrient agar, read-out: Minimal Inhibitory Concentration
Description: as §1

[17] = test system: Proteus morganii K72; assay: In vitro MIC, agar dilution, Proteus morganii K72; format: cell-based; details: Morganella morganii; Proteus morganii K72; agar dilution, 35° C., 18 hours, nutrient agar; read-out: Minimal Inhibitory Concentration
Description: as §1

[18] = test system: Proteus rettgeri N76-1; assay: In vitro MIC, agar dilution, Proteus rettgeri N76-1; format: cell-based; details: Providencia rettgeri, N761; Proteus rettgeri N76-1; agar dilution, 35° C., 18 hours, nutrient agar; read-out: Minimal Inhibitory Concentration
Description: as §1

[19] = test system: Escherichia coli ESS22-31; assay: In vitro MIC, agar dilution, Escherichia coli ESS22-31; format: cell-based; details: read-out: Minimal Inhibitory Concentration
Description: as §1

[20] = test system: Escherichia coli W75-1; assay: In vitro MIC, agar dilution, Escherichia coli W75-1; format: cell-based; details: W751, 35° C., 18 hours, nutrient agar, read-out: Minimal Inhibitory Concentration
Description: as §1

[21] = test system: Escherichia coli OSU75-1; assay: In vitro MIC, agar dilution, Escherichia coli OSU75-1; format: cell-based; details: OSU751, 35° C., 18 hours, nutrient agar, read-out: Minimal Inhibitory Concentration
Description: as §1

[22] = test system: Escherichia coli 311; assay: In vitro MIC, agar dilution, Escherichia coli 311; format: cell-based; details: 35° C., 18 hours, nutrient agar, read-out: Minimal Inhibitory Concentration
Description: as §1

[23] = test system: Staphylococcus aureus Q74-1; assay: In vitro MIC, agar dilution, Staphylococcus aureus Q74-1; format: cell-based; details: Q741; Staphylococcus aureus Q74-1; agar dilution, 35° C., 18 hours, nutrient agar; read-out: Minimal Inhibitory Concentration
Description: as §1

[24] = test system: Staphylococcus aureus Q74-6; assay: In vitro MIC, agar dilution, Staphylococcus aureus Q74-6; format: cell-based; details: Q746; Staphylococcus aureus Q74-6; agar dilution, 35° C., 18 hours, nutrient agar; read-out: Minimal Inhibitory Concentration
Description: as §1

[25] = test system: Enterococcus SM77-15; assay: In vitro MIC, agar dilution, Enterococcus SM77-15; format: cell-based; details: SM7715; Enterococcus SM77-15; agar dilution, 35° C., 18 hours, nutrient agar; read-out: Minimal Inhibitory Concentration
Description: as §1

[26] = test system: Escherichia coli 311; assay: In vivo systemic lethal infection of mice, Escherichia coli 311; design: species or system Charles River CD-1 mice; details: CD-1 mice
Description: As shown in Table II these compounds show high in vivo antibacterial activity against Escherichia coli 311 and Klebsiella pneumoniae W-75-2 when administered by a single subcutaneous dose to groups of Charles River CD-1 mice, weighing about 20 g. each. The mice are infected intraperitoneally with a lethal dose of these bacteria.

[27] = Pseudomonas aeruginosa G236, agar dilution, 35° C., 18 hours, nutrient agar
[28] = ESS2231, Escherichia coli ESS22-31, agar dilution, 35° C., 18 hours, nutrient agar
[29] = single subcutaneous dose 1 mg./kg.
[30] = single subcutaneous dose 2 mg./kg.
[31] = single subcutaneous dose 4 mg./kg.
[32] = single subcutaneous dose 8 mg./kg.
[33] = 1244, Pseudomonas aeruginosa 12-4-4, agar dilution, 35° C., 18 hours, nutrient agar
[34] = Escherichia coli, ESS2231, 18 h

Structure (SMILES)	MIC [2] [mg/L]	MIC [4] [mg/L]	MIC [5] [mg/L]	MIC [6] [mg/L]	MIC [7] [mg/L]	MIC [8] [mg/L]	MIC [9] [mg/L]	MIC [10] [mg/L]	MIC [11] [mg/L]	MIC [12] [mg/L]	MIC [13] [mg/L]	MIC [14] [mg/L]	MIC [15] [mg/L]	MIC [16] [mg/L]	MIC [17] [mg/L]	MIC [18] [mg/L]	MIC [20] [mg/L]	MIC [21] [mg/L]	MIC [22] [mg/L]	MIC [23] [mg/L]	other results
CO/N=C(\C(=O)NC1C(=O)N2C(C(=O)O)=C(CSc3nnc(-n4nc(C)cc4C)n3N)CSC12)c1csc(N)n1 (stereo not drawn) [Compound II, 7-[2-(Syn-methoxyimino)-2-(2-aminothiazol-4-yl)acetamido]-3-[4-amino-5-(1-[3,5-dimethyl]pyrazolyl)-1,2,4-triazol-3-ylthiomethyl]-3-cephem-4-carboxylicacid]	> 128	> 128	≤ 0.12	0.25 (≈ 0.413 µM)	0.25 (≈ 0.413 µM)	0.5 (≈ 0.826 µM)	≤ 0.12	≤ 0.12	128 (≈ 211 µM)	2 (≈ 3.3 µM)	1 (≈ 1.65 µM)	1 (≈ 1.65 µM)	2 (≈ 3.3 µM)	0.5 (≈ 0.826 µM)	0.5 (≈ 0.826 µM)	0.5 (≈ 0.826 µM)	0.25 (≈ 0.413 µM)	0.25 (≈ 0.413 µM)	≤ 0.12	2 (≈ 3.3 µM)	MIC [1, 27]: 128 mg/L (≈ 211 µM); MIC ([3]; Pseudomonas aeruginosa, 1244, 18 h): 64 mg/L (≈ 106 µM); MIC [19, 28]: ≤ 0.12 mg/L; MIC [24]: 64 mg/L (≈ 106 µM); MIC [25]: > 128 mg/L; Alive/Total Mice Tested, 7 Days After Infection [26, 29]: 0/5; Alive/Total Mice Tested, 7 Days After Infection [26, 30]: 5/5; Alive/Total Mice Tested, 7 Days After Infection [26, 31]: 5/5; Alive/Total Mice Tested, 7 Days After Infection [26, 32]: 5/5
CO/N=C(\C(=O)NC1C(=O)N2C(C(=O)O)=C(CSc3nnc(-n4nc(C)cc4-c4ccccc4)n3N)CSC12)c1csc(N)n1 (stereo not drawn) [Compound III, 7-[2-(Syn-methoxyimino)-2-(2-aminothiazol-4-yl)acetamido]-3-[4-amino-5-(1-[3-methyl-5-phenyl]pyrazolyl)-1,2,4-triazol-3-ylthiomethyl]-3-cephem-4-carboxylic acid]	> 128	> 128	0.5 (≈ 0.749 µM)	1 (≈ 1.5 µM)	1 (≈ 1.5 µM)	4 (≈ 5.99 µM)	0.5 (≈ 0.749 µM)	0.25 (≈ 0.374 µM)	128 (≈ 192 µM)	4 (≈ 5.99 µM)	4 (≈ 5.99 µM)	4 (≈ 5.99 µM)	8 (≈ 12 µM)	1 (≈ 1.5 µM)	2 (≈ 3 µM)	1 (≈ 1.5 µM)	1 (≈ 1.5 µM)	1 (≈ 1.5 µM)	0.25 (≈ 0.374 µM)	2 (≈ 3 µM)	MIC ([1]; Pseudomonas aeruginosa, G236, 18 h): > 128 mg/L; MIC [3, 33]: 128 mg/L (≈ 192 µM); MIC [19, 28]: ≤ 0.12 mg/L; MIC [24]: 32 mg/L (≈ 47.9 µM); MIC [25]: > 128 mg/L; Alive/Total Mice Tested, 7 Days After Infection [26, 29]: 0/5; Alive/Total Mice Tested, 7 Days After Infection [26, 30]: 0/5; Alive/Total Mice Tested, 7 Days After Infection [26, 31]: 5/5; Alive/Total Mice Tested, 7 Days After Infection [26, 32]: 5/5
CCN1CCN(C(=O)NC(C(=O)NC2C(=O)N3C(C(=O)O)=C(CSc4nnc(-n5nc(C)cc5C)n4N)CS[C@H]23)c2ccc(O)cc2)C(=O)C1=O (stereo partly shown) [Compound VIII, 7-[2-(4-Ethyl-2,3-dioxo-1-piperazinecarboxamido)-2-(p-hydroxyphenyl)acetamido]-3-[4-amino-5-(3,5-dimethyl-1-pyrazolyl)-1,2,4-triazol-3-ylthiomethyl]-3-cephem-4-carboxylic acid]	> 128	> 128	2 (≈ 2.7 µM)	4 (≈ 5.41 µM)	32 (≈ 43.3 µM)	32 (≈ 43.3 µM)	2 (≈ 2.7 µM)	1 (≈ 1.35 µM)	> 128	128 (≈ 173 µM)	64 (≈ 86.5 µM)	128 (≈ 173 µM)	> 128	128 (≈ 173 µM)	32 (≈ 43.3 µM)	16 (≈ 21.6 µM)	4 (≈ 5.41 µM)	4 (≈ 5.41 µM)	2 (≈ 2.7 µM)	4 (≈ 5.41 µM)	MIC [1, 27]: 128 mg/L (≈ 173 µM); MIC [3, 33]: 32 mg/L (≈ 43.3 µM); MIC [19, 28]: ≤ 0.12 mg/L; MIC [24]: 8 mg/L (≈ 10.8 µM); MIC [25]: 128 mg/L (≈ 173 µM)
CC(=O)OCC1=C(C(=O)O)N2C(=O)[C@@H](NC(=O)[C@H](N)c3ccccc3)[C@H]2SC1 [Compound XI, Cephaloglycin, reference compound]	> 128	> 128	1 (≈ 2.47 µM)	2 (≈ 4.93 µM)	8 (≈ 19.7 µM)	16 (≈ 39.5 µM)	0.5 (≈ 1.23 µM)	2 (≈ 4.93 µM)	> 128	> 128	> 128	> 128	> 128	> 128	> 128	> 128	2 (≈ 4.93 µM)	2 (≈ 4.93 µM)	2 (≈ 4.93 µM)	1 (≈ 2.47 µM)	MIC [1, 27]: > 128 mg/L; MIC [3, 33]: > 128 mg/L; MIC [19, 34]: 0.12 mg/L (≈ 0.296 µM); MIC [24]: 0.12 mg/L (≈ 0.296 µM); MIC [25]: 64 mg/L (≈ 158 µM)
Cc1nnc(SCC2=C(C(=O)O)N3C(=O)[C@@H](NC(=O)Cn4cnnn4)[C@H]3SC2)s1 [Compound XII, Cefazolin, reference compound]	> 128	> 128	1 (≈ 2.2 µM)	1 (≈ 2.2 µM)	8 (≈ 17.6 µM)	64 (≈ 141 µM)	0.5 (≈ 1.1 µM)	2 (≈ 4.4 µM)	> 128	> 128	> 128	> 128	> 128	> 128	> 128	> 128	1 (≈ 2.2 µM)	1 (≈ 2.2 µM)	0.5 (≈ 1.1 µM)	0.12 (≈ 0.264 µM)	MIC [1, 27]: > 128 mg/L; MIC [3, 33]: > 128 mg/L; MIC [19, 34]: 0.25 mg/L (≈ 0.55 µM); MIC [24]: ≤ 0.06 mg/L; MIC [25]: 16 mg/L (≈ 35.2 µM)
